Molecules are shown by their SMILES.

This assay concerns carrageenin edema. The assay is described as follows: Carrageenin edema test. Format: in vivo, Sprague-Dawley rats. Particulars: rat hind paw, 10 mg/kg oral, 60 minutes prior to carrageenin (0.1 ml, 1%); edema weight 3 hours after injection. As to the method:
Five Sprague-Dawley rats were fasted for 24 hours and submitted to the study. First, 0.1 ml of carrageenin (1%) was subcutaneously injected into the paw of the right hind limb and after 3 hours the rat was sacrificed. The untreated limb and the edematous limb were respectively incised off at the junction of the tibia and weighed. The difference in weight between the edematous limb and the untreated limb was taken as the weight of the edema.
The test compound was orally administered 60 minutes prior to the administration of carrageenin and the swelling in the treated limb was compared with that in the control limb. The test compound was administered in a dose of 10 mg/kg.
(In general: In the carrageenan paw model, swelling and tenderness develop within hours.)

As to `CN1C(C(=O)Nc2cccccc2=O)=C(O)c2ccccc2S1(=O)=O` [Example 1, 4-hydroxy-2-methyl-N-(1-oxo-2,4,6-cycloheptatrien-2-yl)-2H-1,2-benzothiazine-3-carboxamide 1,1-dioxide], the “% Inhibition of carrageenin edema” value came to 51.4%.

The values above are taken from patent publication US4540692A, “Anti-inflammatory N-(1-oxo-2,4,6-cycloheptatrienyl)2H-1,2-benzothiazine-3-carboxamide 1,1-dioxide derivatives, compositions, and method of use” (Fujisawa Pharmaceutical Co., Ltd., priority 1983, dated 1985).
